Laboratory results taken from US11517617B2, “Methods and compositions for preventing influenza infection” (THE UNIVERSITY OF MELBOURNE, priority 2017, dated 2022).

System: memory CD8^+ T cells within PBMCs
Assay type: cell-based, human

Sequence	cross-reactivity of CD8^+ T cells after in vitro expansion with the peptide	recognition of IBV-derived variant by IAV-expanded CD8^+ T cells
FEDLRVLSA (Influenza A virus) [NP338-345]	recognizing both IAV- and IBV-derived peptides	–
YEDLRVLSA (Influenza B virus) [BNP394-401]	could not expand CD8^+ T cells	to a lesser extent
